Data as given in patent publication US20250027085A1, “COMPOSITIONS AND METHODS FOR TREATING ALZHEIMER'S DISEASE UTILIZING A TRANSCRIPTIONAL MASTER REGULATOR OF THE RETROMER COMPLEX” (THE TRUSTEES OF COLUMBIA UNIVERSITY IN THE CITY OF NEW YORK, priority 2022, published 2025).

Legend:
[1] = system: rat hippocampal neurons; experiment: Cell death assay (TUNEL) after axonal Aβ1-42/Aβ42 treatment in microfluidic chambers; type: cell-based; conditions: Aβ oligomers 36 hours, nelfinavir in the last 24 hours, 10/15 μM nelfinavir
Procedure: (§1) Hippocampi were dissected from embryonic day (E) 16-18 rat embryos obtained from pregnant Sprague-Dawley dams (Envigo). All animal procedures were approved by the Institutional Animal Care and Use Committee at Columbia University. Cell dissociation was performed using TripLE Express. Neurons (50,000-60,000 per microfluidic chamber) were plated on 0.1 mg ml^-1 poly-D-lysine (Millipore Sigma) and 2 μg ml^-1 laminin (Bio-Techne) coated substrates and grown in Neurobasal supplemented with 10% fetal bovine serum, 2 mM L-glutamine, 1 mM sodium pyruvate, and antibiotics (50 U ml^-1 penicillin-streptomycin). Tripartite microfluidic chambers were produced with Dow Corning Sylgard 184 Silicone Encapsulant Clear Kit (10:1 mix ratio; Ellsworth Adhesives) cured at […] for at least 4 hours following published protocols (Park et al. 2006; Desai et al. 2009). Chamber design incorporated two sets of 200-μm-long microgroove barriers to exclude crossing of cell bodies and dendrites (Taylor et al. 2005; […] et al. 2009). After 24 hours, medium was changed to Neurobasal containing 1×B27 and 2 mM L-glutamine. Subsequent medium changes (half volumes) were performed at DIV4 and thereafter every 3-5 days. To prevent glial cell proliferation, medium changes included 5-flurodeoxyuridine and uridine (final concentration […]; Millipore Sigma) after DIV4. […]

[2] = system: CREB3L2-ATF4 heterodimers; experiment: Proximity ligation assay (PLA) of axonal CREB3L2-ATF4 heterodimers; type: cell-based, rat; conditions: axons treated with Aβ oligomers for 36 hours plus nelfinavir
Procedure: as §1

Compound: Cc1c(O)cccc1C(=O)N[C@@H](CSc1ccccc1)[C@H](O)CN1C[C@H]2CCCC[C@H]2C[C@H]1C(=O)NC(C)(C)C [nelfinavir]
- retrograde degeneration response (TUNEL) triggered by local Aβ1-42/Aβ42 stimuli [1]: completely rescued
- CREB3L2-ATF4 complexes/heterodimers in axons (PLA) [2]: caused the accumulation
